Assay results taken from patent US5068247A, “2-aminopentanoic acid compounds and their use as immunosuppressants” (priority 1989, dated 1991).
Where two headings read alike, the source gives them in different places.

Key:
Format in all cases: cell-based
[1] = tested on: human allogenic MLR (human peripheral blood lymphocytes); experiment: human allogenic MLR-suppressive activity, 3H-thymidine uptake
Method: The human allogenic MLR-suppressive activity was assayed as follows:
Human peripheral blood lymphocytes obtained by Ficoll-Paque density gradient centrifugation of normal human peripheral blood were suspended in the RPMI1640 culture medium supplemented with 10% FCS, placed in a plastic dish, and cultured in an atmosphere of 5% carbon dioxide and 95% air at 37° C. for 2 hours. After termination of culture, the supernatant after gentle pipetting was collected and centrifuged (1000 rpm, for 5 minutes) to obtain plastic-nonadherent cells. The plastic-nonadherent cells were allowed to pass through a nylon-wool column to give nylon-nonadherent cells, and the concentration of the cell suspension was adjusted to 4×10^6 cells/ml by using the RPMI1640 culture medium supplemented with 10% FCS, and used as the responder cell suspension.
The plastic-adherent cells were removed from the plastic dish by vigorous pipetting after addition of phosphate buffered saline (PBS) supplemented with 5% FCS and 0.02% disodium ethylenediaminetetraacetic acid (EDTA). The plastic-adherent cells were treated with 40 μg/ml of mitomycin C at 37° C. for 60 minutes, washed three times, and suspended to the concentration of 4×10^6 cells/ml in the RPMI1640 culture medium supplemented with 10% FCS. The resultant suspension was used as the stimulator cell suspension.
After termination of culture, 37 KBq/well of ^3 H-thymidine was added, and after 18 hours of culture, the cells were harvested by a cell-harvester. The radioactivity incorporated into the cells was measured by a liquid scintillation counter, which was used as an index of blastogenic response of lymphocytes in human allogenic MLR. The suppression of human allogenic MLR was evaluated by calculating the percent suppression by the following formula. [formula]

[2] = tested on: CTLL-2 cells; experiment: suppression of proliferation of IL-2-dependent mouse cell line CTLL-2 induced by IL-2; settings: IL-2 50 U/ml, Table 6A
Method: IL-2-dependent mouse cell line CTLL-2 cells were suspended in the RPMI1640 culture medium supplemented with 30% FCS to the concentration of 4×10^5 cells/ml. Fifty μl of the cell suspension, 50 μl of 200 U/ml recombinant human IL-2 (rhIL-2) and 100 μl of the test substance were added to a 96-well flat-bottomed microtest plate. […] The percent suppression (%) was calculated by the following formula. [formula]

[3] = tested on: IL-3 production in PHA-stimulated mouse spleen cells; experiment: suppression of IL-3 production in PHA-stimulated mouse spleen cells
Method: (§1) The suppression of IL-2 and IL-3 production in the mitogen-stimulated mouse spleen cells was examined as follows:
(§2) The spleen was resected from 5- to 8-week-old male C3H/HeN mice, and a single cell suspension of spleen cells was prepared by using the RPMI1640 culture medium. After hemolytic treatment, the concentration of the suspension was adjusted to 10^7 cells/ml by using the RPMI1640 culture medium supplemented with 20% FCS, to which 10 μg/ml of phytohemagglutinin (PHA) was added as mitogen. […] After termination of culture, the supernatant was collected and used as the culture supernatant of PHA-stimulated mouse spleen cells.
The IL-3 activity was assayed as follows:
IL-3-dependent mouse cell line FDC-P2 cells were suspended in the RPMI1640 culture medium supplemented with 10% FCS to the concentration of 2×10^5 cells/ml. One hundred μl of the cell suspension and 100 μl of the two-fold serial dilution of the culture supernatant of PHA-stimulated mouse spleen cells described above were added to a 96-well flat-bottomed microtest plate. […] The IL-3 activity is expressed in U/ml as the dilution at which the absorbancy measured by MTT method was 50% of the maximum.

[4] = tested on: IL-2 production in PHA-stimulated mouse spleen cells; experiment: suppression of IL-2 production in PHA-stimulated mouse spleen cells
Method: as §1, §2
The IL-2 activity in the culture supernatant of PHA-stimulated mouse spleen cells was assayed as follows:
IL-2 dependent mouse cell line CTLL-2 cells were suspended in the RPMI1640 culture medium supplemented with 30% FCS to the concentration of 2×10^5 cells/ml. One hundred μl of the cell suspension and 100 μl of the two-fold serial dilution of the culture supernatant of PHA-stimulated mouse spleen cells were added to a 96-well flat-bottomed microtest plate. […] The IL-2 activity is expressed in U/ml as the dilution at which the absorbancy measured by MTT method was 50% of the maximum.

[5] = Mus musculus, 24 h, 0.001 μg/ml, read-out: Suppression
[6] = Mus musculus, 24 h, 0.01 μg/ml, read-out: Suppression
[7] = Mus musculus, 24 h, 0.1 μg/ml, read-out: Suppression
[8] = Mus musculus, 24 h, 1 μg/ml, read-out: Suppression

CCCCCCC(O)C=CCCCCC=CCC(O)C(O)C(N)(CO)C(=O)O (stereo not shown) [Example 1]
3H-thymidine uptake ([1]; 0.0001 μg/ml, Donor C/Donor D): 20334 cpm
3H-thymidine uptake ([1]; 0.001 μg/ml, Donor A/Donor B): 12137 cpm
3H-thymidine uptake ([1]; 0.001 μg/ml, Donor C/Donor D): 15284 cpm
3H-thymidine uptake ([1]; 0.01 μg/ml, Donor A/Donor B): 7479 cpm
3H-thymidine uptake ([1]; 0.01 μg/ml, Donor C/Donor D): 7232 cpm
3H-thymidine uptake ([1]; 0.1 μg/ml, Donor A/Donor B): 5590 cpm
3H-thymidine uptake ([1]; 0.1 μg/ml, Donor C/Donor D): 5292 cpm
3H-thymidine uptake ([1]; 1 μg/ml, Donor A/Donor B): 5613 cpm
3H-thymidine uptake ([1]; 1 μg/ml, Donor C/Donor D): 6689 cpm
suppressive activity in human allogenic MLR (in words) ([1]; 1 to 0.0001 μg/ml): exhibited suppressive activity in human allogenic MLR in a concentration-dependent manner
inhibition at 0.0001 µg/mL ([1]; Homo sapiens, Lymphocyte, 0.0001 μg/ml, Donor C/Donor D, read-out: Suppression): 1.4%
inhibition at 0.001 µg/mL ([1]; Homo sapiens, Lymphocyte, 0.001 μg/ml, Donor A/Donor B, read-out: Suppression): 0%
inhibition at 0.001 µg/mL ([1]; Homo sapiens, Lymphocyte, 0.001 μg/ml, Donor C/Donor D, read-out: Suppression): 24.4%
inhibition at 0.01 µg/mL ([1]; Homo sapiens, Lymphocyte, 0.01 μg/ml, Donor A/Donor B, read-out: Suppression): 39.6%
inhibition at 0.01 µg/mL ([1]; Homo sapiens, Lymphocyte, 0.01 μg/ml, Donor C/Donor D, read-out: Suppression): 65.4%
inhibition at 0.1 µg/mL ([1]; Homo sapiens, Lymphocyte, 0.1 μg/ml, Donor A/Donor B, read-out: Suppression): 56.5%
inhibition at 0.1 µg/mL ([1]; Homo sapiens, Lymphocyte, 0.1 μg/ml, Donor C/Donor D, read-out: Suppression): 75.3%
inhibition at 1 µg/mL ([1]; Homo sapiens, Lymphocyte, 1 μg/ml, Donor A/Donor B, read-out: Suppression): 56.3%
inhibition at 1 µg/mL ([1]; Homo sapiens, Lymphocyte, 1 μg/ml, Donor C/Donor D, read-out: Suppression): 68.2%
optical density (OD570) ([2]; 0.001 μg/ml): 0.508
optical density (OD570) ([2]; 0.01 μg/ml): 0.556
optical density (OD570) ([2]; 0.1 μg/ml): 0.009
optical density (OD570) ([2]; 1 μg/ml): 0.005
inhibition at 0.001 µg/mL ([2]; Mus musculus, CTLL-2, 68 h, 0.001 μg/ml, read-out: Suppression): 13.3%
inhibition at 0.01 µg/mL ([2]; Mus musculus, CTLL-2, 68 h, 0.01 μg/ml, read-out: Suppression): 5.1%
inhibition at 0.1 µg/mL ([2]; Mus musculus, CTLL-2, 68 h, 0.1 μg/ml, read-out: Suppression): 98.6%
inhibition at 1 µg/mL ([2]; Mus musculus, CTLL-2, 68 h, 1 μg/ml, read-out: Suppression): 99.3%
IL-3 activity ([3]; 0.001 μg/ml): 34.3 U/ml
IL-3 activity ([3]; 0.01 μg/ml): 27.9 U/ml
IL-3 activity ([3]; 0.1 μg/ml): 12.2 U/ml
IL-3 activity ([3]; 1 μg/ml): 10.5 U/ml
inhibition at 0.001 µg/mL [3, 5]: 6.8%
inhibition at 0.01 µg/mL [3, 6]: 24.2%
inhibition at 0.1 µg/mL [3, 7]: 66.8%
inhibition at 1 µg/mL [3, 8]: 71.5%
IL-2 activity ([4]; 0.001 μg/ml): 13.9 U/ml
IL-2 activity ([4]; 0.01 μg/ml): 6.1 U/ml
IL-2 activity ([4]; 0.1 μg/ml): 3.7 U/ml
IL-2 activity ([4]; 1 μg/ml): 2.0 U/ml
inhibition at 0.001 µg/mL [4, 5]: 0%
inhibition at 0.01 µg/mL [4, 6]: 49.6%
inhibition at 0.1 µg/mL [4, 7]: 69.4%
inhibition at 1 µg/mL [4, 8]: 83.5%
